# In patent US20240109924A1, “IP4-4,6 SUBSTITUTED DERIVATIVE COMPOUNDS” (SANIFIT THERAPEUTICS, S.A., priority 2021, published 2024):
# Structures can show the parent of a compound that is named as a salt.
# Experiment: In vitro inhibition of calcium phosphate crystallization in human plasma (spectrophotometric assay)
# Type: biochemical
# Settings: 0-100 μM, 1.5 mM phosphate, 12.5 mM calcium, pH 7.4, absorbance 550 nm, slope 6-24 min, read-out: Relative Potency
# Procedure: The in vitro efficacy of the IP4-4,6 substituted derivatives (e.g., Compounds 1 to 53) of the invention on the inhibition of calcium phosphate crystallization in human plasma samples was evaluated according to a spectrophotometric assay previously described in the art (Ferrer M, et al., Sci Rep 2017; 7:6858, doi:10.1038/s41598-017-07203-x).
# A 96-well plate was employed. Plasma was spiked (1 volume of the IP4-4,6 substituted derivatives of the invention per 19 volumes of plasma) with increasing concentrations of the derivatives in the range of 0-100 μM. Plasma was then centrifuged at 10,000 g at rt and subsequently mixed with a mixture of 5 mM hydrogen phosphate and 41.67 mM calcium to attain final concentrations of 1.5 mM phosphate and 12.5 mM calcium, respectively. All reagent solutions were filtered, and pH adjusted to 7.4.
# Crystallization of calcium phosphate was monitored spectrophotometrically for 30 min at rt by measuring the increments in absorbance at 550 nm using the Biotek Powerwave XS Microplate spectrophotometer (BioTek Instruments, Inc., Winooski, VT, US). The plate was incubated at rt in an orbital shaker and absorbance measured every 3 min.
# Plasma crystallization was assessed based on slope measurement in the linear range between 6 and 24 min from plots of increase in absorbance versus logarithm of time. The efficacy of different myo-inositol phosphates derivatives in preventing in vitro formation of calcium phosphate crystals was assessed in human plasma samples using the slopes obtained between 6- and 24-min. Inhibition of crystallization was measured by comparing the slopes of the control sample (blank plasma) with those of samples containing the inhibitor as shown below: […]
row,SMILES,EC50 [µM]
1,"COCCCn1cc(CO[C@@H]2[C@@H](OP(=O)(O)O)[C@H](OCc3cn(CCCOC)nn3)[C@@H](OP(=O)(O)O)[C@@H](OP(=O)(O)O)[C@H]2OP(=O)(O)O)nn1 [Compound 32, 4,6-O-bis((1-(3-methoxypropyl)-1H-1,2,3-triazol-4-yl)methyl)-myo-inositol-1,2,3,5-tetrakis(phosphate) octasodium salt]",≤ 5
2,"COCCCCCCn1cc(COC2C(OP(=O)(O)O)C(OCc3cn(CCCCCCOC)nn3)C(OP(=O)(O)O)C(OP(=O)(O)O)C2OP(=O)(O)O)nn1 (centres unmarked) [Compound 33, 4,6-O-bis((1-(6-methoxyhexyl)-1H-1,2,3-triazol-4-yl)methyl)-myo-inositol-1,2,3,5-tetrakis(phosphate) octasodium salt]",5 to 10
3,"CC(=O)N1CCN(CCOC2C(OP(=O)(O)O)C(OCCN3CCN(C(C)=O)CC3)C(OP(=O)(O)O)C(OP(=O)(O)O)C2OP(=O)(O)O)CC1 (centres unmarked) [Compound 34, 4,6-O-bis(2-(4-acetylpiperazin-1-yl)ethyl)-myo-inositol-1,2,3,5-tetrakis(phosphate) octasodium salt]",5 to 10
4,"O=C(O)CCc1cn(CCCOC2C(OP(=O)(O)O)C(OCCCn3cc(CCC(=O)O)nn3)C(OP(=O)(O)O)C(OP(=O)(O)O)C2OP(=O)(O)O)nn1 (centres unmarked) [Compound 35, 4,6-O-bis(3-(4-(2-carboxyethyl)-1H-1,2,3-triazol-1-yl)propyl)-myo-inositol-1,2,3,5-tetrakis(phosphate) decasodium salt]",≤ 5
5,"COCc1cn(CCCOC2C(OP(=O)(O)O)C(OCCCn3cc(COC)nn3)C(OP(=O)(O)O)C(OP(=O)(O)O)C2OP(=O)(O)O)nn1 (centres unmarked) [Compound 36, 4,6-O-bis(3-(4-(methoxymethyl)-1H-1,2,3-triazol-1-yl)propyl)-myo-inositol-1,2,3,5-tetrakis(phosphate) octasodium salt]",5 to 10
6,"COCc1cn(CCCCOC2C(OP(=O)(O)O)C(OCCCCn3cc(COC)nn3)C(OP(=O)(O)O)C(OP(=O)(O)O)C2OP(=O)(O)O)nn1 (centres unmarked) [Compound 37, 4,6-O-bis(4-(4-(methoxymethyl)-1H-1,2,3-triazol-1-yl)butyl)-myo-inositol-1,2,3,5-tetrakis(phosphate) octasodium salt]",5 to 10
7,"COCc1cn(CCCCCOC2C(OP(=O)(O)O)C(OCCCCCn3cc(COC)nn3)C(OP(=O)(O)O)C(OP(=O)(O)O)C2OP(=O)(O)O)nn1 (centres unmarked) [Compound 38, 4,6-O-bis(5-(4-(methoxymethyl)-1H-1,2,3-triazol-1-yl)pentyl)-myo-inositol-1,2,3,5-tetrakis(phosphate) octasodium salt]",≤ 5
8,"O=C(O)c1cn(CCCCCCOC2C(OP(=O)(O)O)C(OCCCCCCn3cc(C(=O)O)nn3)C(OP(=O)(O)O)C(OP(=O)(O)O)C2OP(=O)(O)O)nn1 (centres unmarked) [Compound 40, 4,6-O-(6-(4-carboxy-1H-1,2,3-triazol-1-yl)hexyl)-myo-inositol-1,2,3,5-tetrakis(phosphate) decasodium salt]",≤ 5
9,"COCc1cn(CCCCCCOC2C(OP(=O)(O)O)C(OCCCCCCn3cc(C(=O)O)nn3)C(OP(=O)(O)O)C(OP(=O)(O)O)C2OP(=O)(O)O)nn1 (centres unmarked) [Compound 41, 4-O-(6-(4-carboxy-1H-1,2,3-triazol-1-yl)hexyl)-6-O-(6-(4-(methoxymethyl)-1H-1,2,3-triazol-1-yl)hexyl)-myo-inositol-1,2,3,5-tetrakis(phosphate) nonasodium salt]",≤ 5
10,"COc1ccc(CCCOC2C(OP(=O)(O)O)C(OCCCc3ccc(OC)cc3)C(OP(=O)(O)O)C(OP(=O)(O)O)C2OP(=O)(O)O)cc1 (centres unmarked) [Compound 43, 4,6-O-bis(3-(4-methoxyphenyl)propyl)-myo-inositol-1,2,3,5-tetrakis(phosphate) octasodium salt]",5 to 10
11,"O=P(O)(O)OC1C(OCCCc2cccc(C(F)(F)F)c2)C(OP(=O)(O)O)C(OP(=O)(O)O)C(OP(=O)(O)O)C1OCCCc1cccc(C(F)(F)F)c1 (centres unmarked) [Compound 44, 4,6-O-bis(3-(3-(trifluoromethyl)phenyl)propyl)-myo-inositol-1,2,3,5-tetrakis(phosphate) octasodium salt]",> 10
12,"O=C(O)CCCC(=O)NCCCOC1C(OP(=O)(O)O)C(OCCCNC(=O)CCCC(=O)O)C(OP(=O)(O)O)C(OP(=O)(O)O)C1OP(=O)(O)O (centres unmarked) [Compound 45, 4,6-O-bis((3-(4-carboxybutanamido)propyl))-myo-inositol-1,2,3,5-tetrakis(phosphate) decasodium salt]",≤ 5
13,"O=C(NCCCOC1C(OP(=O)(O)O)C(OCCCNC(=O)Nc2ccccc2)C(OP(=O)(O)O)C(OP(=O)(O)O)C1OP(=O)(O)O)Nc1ccccc1 (centres unmarked) [Compound 46, 4,6-O-bis(3-(3-phenylureido)propyl)-myo-inositol-1,2,3,5-tetrakis(phosphate) octasodium salt]",5 to 10
14,"O=C(NCCCOC1C(OP(=O)(O)O)C(OCCCNC(=O)NC2CCCC2)C(OP(=O)(O)O)C(OP(=O)(O)O)C1OP(=O)(O)O)NC1CCCC1 (centres unmarked) [Compound 47, 4,6-O-bis(3-(3-cyclopentylureido)propyl)-myo-inositol-1,2,3,5-tetrakis(phosphate) octasodium salt]",≤ 5
15,"O=C(NCCCCCOC1C(OP(=O)(O)O)C(OCCCCCNC(=O)c2ccccc2)C(OP(=O)(O)O)C(OP(=O)(O)O)C1OP(=O)(O)O)c1ccccc1 (centres unmarked) [Compound 48, 4,6-O-bis(5-benzamidopentyl)-myo-inositol-1,2,3,5-tetrakis(phosphate) octasodium salt]",> 10
16,"O=C(NCCCCCOC1C(OP(=O)(O)O)C(OCCCCCNC(=O)c2cccs2)C(OP(=O)(O)O)C(OP(=O)(O)O)C1OP(=O)(O)O)c1cccs1 (centres unmarked) [Compound 49, 4,6-O-bis(5-(thiophene-2-carboxamido)pentyl)-myo-inositol-1,2,3,5-tetrakis(phosphate) octasodium salt]",5 to 10
17,"CCCCCOC1C(OP(O)(O)=S)C(OCCCCC)C(OP(O)(O)=S)C(OP(O)(O)=S)C1OP(O)(O)=S (centres unmarked) [Compound 50, 4,6-O-dipentyl-myo-inositol-1,2,3,5-tetrakis(thiophosphate) octasodium salt]",> 10
18,"COCCCCCOC1C(OP(O)(O)=S)C(OCCCCCOC)C(OP(O)(O)=S)C(OP(O)(O)=S)C1OP(O)(O)=S (centres unmarked) [Compound 51, 4,6-O-bis(5-Methoxypentyl)-myo-inositol-1,2,3,5-tetrakis(thiophosphate) octasodium salt]",> 10
19,"O=C(O)CCCOC1C(OP(=O)(O)O)C(OCCCC(=O)O)C(OP(=O)(O)O)C(OP(=O)(O)O)C1OP(=O)(O)O (centres unmarked) [Compound 52, 4,6-O-bis(3-carboxypropyl)-myo-inositol-1,2,3,5-tetrakis(phosphate) decasodium salt]",≤ 5
20,"C#CCOC1C(OP(=O)(O)O)C(OCC#C)C(OP(=O)(O)O)C(OP(=O)(O)O)C1OP(=O)(O)O (centres unmarked) [Compound 53, 4,6-O-Dipropargyl-myo-inositol-1,2,3,5-tetrakis(phosphate) octasodium salt]",≤ 5
